Test systems include A498 renal; EKVX NSCLC; HL-60(TB) leukemia; NCI-H460 lung; RXF 393 renal; SK-OV-3 ovarian; SR leukemia; UACC-62 melanoma; UO-31 renal; MDA-MB-435.
Holding throughout (assay): NCI-60 cell line screen, 48 h

The structures appear in SMILES notation. Where “and” joins values, the source holds several entries; their conditions need not be identical. Equal values may be shown once.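 Cultured in 96-well plates, cells were exposed to test compound for 48 hours across five concentrations. GI50 marks 50% less growth. TGI marks complete inhibition of growth.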

This is an account of results in PubChem BioAssay (NCI).

In the case of `CC(=O)c1cccc(N2COC(C)(C)c3nc4ccccc4n3C2)c1`, the TGI in the experiment with A498 renal, in the experiment on EKVX NSCLC, in the experiment on HL-60(TB) leukemia, with NCI-H460 lung, in the experiment on RXF 393 renal and in the experiment with SK-OV-3 ovarian was greater than 100 µM each time. The TGI in the experiment with SR leukemia, in the experiment on UACC-62 melanoma and in the experiment with UO-31 renal was greater than 100 µM throughout.
In the case of `COc1cc(OC)c(/C=C/S(=O)(=O)Cc2cnc(OC)c(N)c2)c(OC)c1`, the GI50 is less than 0.01 µM in the experiment with A498 renal; 0.223 µM in the experiment on EKVX NSCLC; less than 0.0167 µM in the experiment on HL-60(TB) leukemia; less than 0.02 µM in the experiment with NCI-H460 lung; less than 0.01 µM in the experiment with RXF 393 renal; less than 0.0211 µM with SK-OV-3 ovarian. Further, the GI50 was less than 0.0143 µM with SR leukemia, less than 0.01 µM with UACC-62 melanoma and less than 0.0251 µM in the experiment with UO-31 renal. The TGI with A498 renal, in the experiment on EKVX NSCLC, in the experiment on NCI-H460 lung, in the experiment with RXF 393 renal, in the experiment with SK-OV-3 ovarian and with SR leukemia was greater than 100 µM in each case. Also, the TGI in the experiment on UACC-62 melanoma and in the experiment on UO-31 renal was greater than 100 µM in each case.
For `O=C(Nc1cc(Cl)c(Cl)cc1Cl)C(=O)C1C=CCS1(=O)=O` (configuration not stated), the TGI with A498 renal, with EKVX NSCLC, in the experiment on HL-60(TB) leukemia, in the experiment on NCI-H460 lung, with RXF 393 renal and in the experiment with SK-OV-3 ovarian was greater than 100 µM throughout. The TGI in the experiment on SR leukemia, with UACC-62 melanoma and in the experiment on UO-31 renal was greater than 100 µM in each case.
As to `COc1ccc(N2C(=O)CC(Cl)C2=O)cc1` (configuration not stated), the TGI was greater than 100 µM with A498 renal; greater than 100 µM in the experiment on EKVX NSCLC; greater than 100 µM with MDA-MB-435; greater than 100 µM in the experiment with NCI-H460 lung; 40.7 µM in the experiment with RXF 393 renal; greater than 100 µM in the experiment on SK-OV-3 ovarian. In addition, the TGI is 46.5 µM with UACC-62 melanoma and 33 µM with UO-31 renal.
Turning to `COc1ccccc1N1C(=O)/C(=C/c2ccc(N(CCC#N)CCC#N)cc2C)N=C1c1cc([N+](=O)[O-])ccc1Cl`, the TGI in the experiment with A498 renal, in the experiment with EKVX NSCLC, with HL-60(TB) leukemia, with NCI-H460 lung, in the experiment on SK-OV-3 ovarian and in the experiment on SR leukemia was greater than 100 µM throughout. In addition, in the experiment with UO-31 renal, the TGI is greater than 100 µM.
Turning to `CC(C)(C#N)c1cc(Cn2cncn2)cc(C(C)(C)C#N)c1`, the GI50 with EKVX NSCLC is 400 µM; with MDA-MB-435, greater than 10000 µM; in the experiment on NCI-H460 lung, 3990 µM; with SK-OV-3 ovarian, greater than 10000 µM; in the experiment on UACC-62 melanoma, 768 µM; with UO-31 renal, 720 µM. Further, the TGI with EKVX NSCLC, in the experiment on MDA-MB-435, in the experiment with NCI-H460 lung, with SK-OV-3 ovarian, in the experiment on UACC-62 melanoma and with UO-31 renal was greater than 10000 µM each time.
In the case of `COc1ccc([N+]2=NC(c3ccc([N+](=O)[O-])cc3)=NN(c3ccccc3)C2)cc1`, the TGI is greater than 100 µM in the experiment on A498 renal; greater than 100 µM in the experiment with EKVX NSCLC; 83.2 µM and 69.3 µM in the experiment on HL-60(TB) leukemia; greater than 100 µM in the experiment with NCI-H460 lung; greater than 100 µM in the experiment with RXF 393 renal; greater than 100 µM in the experiment with SR leukemia. The compound also yielded a TGI with UO-31 renal greater than 100 µM.
On to `CCC(Sc1cc(Cl)c(C)cc1S(=O)(=O)Nc1nc(N)nc(N(C)C)n1)C(=O)O` (configuration not stated), for which the TGI in the experiment with A498 renal, in the experiment with EKVX NSCLC, in the experiment on HL-60(TB) leukemia, in the experiment on NCI-H460 lung, with RXF 393 renal and in the experiment on SK-OV-3 ovarian was greater than 10 µM each time. In addition, the TGI in the experiment with SR leukemia and in the experiment on UO-31 renal was greater than 10 µM throughout.
As to `C=CC1(C(=O)O)CCC(C(C)(C)C)CC1` (configuration not stated), the TGI with A498 renal, with EKVX NSCLC, in the experiment with HL-60(TB) leukemia, in the experiment on NCI-H460 lung, with RXF 393 renal and with SK-OV-3 ovarian was greater than 100 µM each time. For the same compound, the TGI in the experiment on SR leukemia, in the experiment with UACC-62 melanoma and in the experiment with UO-31 renal was greater than 100 µM each time.
Consider `Cc1c(NC(=O)C(C)(C)Br)c(=O)oc2c(C)c3occc(=O)c3cc12`, for which the TGI in the experiment with A498 renal was 66.3 µM; in the experiment on EKVX NSCLC, greater than 100 µM; in the experiment on HL-60(TB) leukemia it was greater than 100 µM; in the experiment with NCI-H460 lung, greater than 100 µM; in the experiment on RXF 393 renal, greater than 100 µM; in the experiment with SR leukemia, greater than 100 µM. The TGI in the experiment on UACC-62 melanoma is greater than 100 µM; in the experiment on UO-31 renal it was 76.2 µM.
With `Cc1cc(Cl)ccc1NC(=O)CCCC(=O)C1CCCC1=O` (configuration not stated), the TGI with A498 renal, with EKVX NSCLC, in the experiment with HL-60(TB) leukemia, with NCI-H460 lung, in the experiment with SK-OV-3 ovarian and in the experiment on UACC-62 melanoma was greater than 100 µM throughout. In the experiment with UO-31 renal, this compound returned a TGI greater than 100 µM.
For the compound `O=[N+]([O-])c1cccc(C2N3CCCCC3[C@@H]3c4[nH]c5ccccc5c4CCN23)c1` (some centres not stated), the TGI came out at 29.5 µM in the experiment with A498 renal; 69.9 µM in the experiment with EKVX NSCLC; 29 µM with HL-60(TB) leukemia; 31.1 µM in the experiment on NCI-H460 lung; 18.8 µM with RXF 393 renal; 52.1 µM in the experiment on SK-OV-3 ovarian. Besides, the TGI in the experiment with UACC-62 melanoma worked out at 19.9 µM; with UO-31 renal, 25.6 µM.
As to `Cc1[nH]c2ccccc2c1C1Cc2ccccc2N1C(=O)/C=C\C(=O)O` (configuration not stated), the TGI in the experiment with A498 renal is greater than 100 µM; in the experiment with EKVX NSCLC, greater than 100 µM; with HL-60(TB) leukemia, 68.2 µM; with NCI-H460 lung it was greater than 100 µM; in the experiment with RXF 393 renal it was 71.3 µM; in the experiment with SK-OV-3 ovarian, greater than 100 µM. Also, the values for the TGI in the experiment on SR leukemia, in the experiment on UACC-62 melanoma and in the experiment on UO-31 renal were 85.7 µM, 72.3 µM and greater than 100 µM, respectively.
In the case of `COC(=O)C1C(C(=O)OC)C2(OC)c3ccccc3-c3ccccc3C12` (configuration not stated), the TGI in the experiment on A498 renal is greater than 100 µM; in the experiment on EKVX NSCLC, greater than 100 µM; in the experiment with HL-60(TB) leukemia it was 25.3 µM; in the experiment with NCI-H460 lung it was greater than 100 µM; with RXF 393 renal it was greater than 100 µM; in the experiment with SK-OV-3 ovarian it was greater than 100 µM. Moreover, the TGI was 42 µM in the experiment on SR leukemia, greater than 100 µM in the experiment with UACC-62 melanoma and greater than 100 µM in the experiment with UO-31 renal.
